Reference: PubChem BioAssay (NCI)
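These data come from cells grown in 96-well plates and exposed to compound for 48 hours at five concentrations. Definition used: TGI = concentration required for complete inhibition of growth.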

Assays:
Experiment in all cases: NCI tumour cell line growth inhibition, 48 h
786-0 renal = system: 786-0 renal
A498 renal = system: A498 renal
A549 NSCLC = system: A549 NSCLC
ACHN renal = system: ACHN renal
BT-549 breast = system: BT-549 breast
CAKI-1 renal = system: CAKI-1 renal
CCRF-CEM leukemia = system: CCRF-CEM leukemia
COLO 205 colon = system: COLO 205 colon
DU-145 prostate = system: DU-145 prostate
EKVX NSCLC = system: EKVX NSCLC
HCC-2998 colon = system: HCC-2998 colon
HCT-116 colon = system: HCT-116 colon
HCT-15 colon = system: HCT-15 colon
HL-60(TB) leukemia = system: HL-60(TB) leukemia
HOP-62 NSCLC = system: HOP-62 NSCLC
HOP-92 NSCLC = system: HOP-92 NSCLC
HS 578T breast = system: HS 578T breast
HT29 colon = system: HT29 colon
IGROV1 ovarian = system: IGROV1 ovarian
K-562 leukemia = system: K-562 leukemia
KM12 colon = system: KM12 colon
M14 melanoma = system: M14 melanoma
MALME-3M melanoma = system: MALME-3M melanoma
MCF7 breast = system: MCF7 breast
MDA-MB-231 breast = system: MDA-MB-231 breast
MDA-MB-435 = system: MDA-MB-435
MDA-N = system: MDA-N
MOLT-4 leukemia = system: MOLT-4 leukemia
NCI-H226 lung = system: NCI-H226 lung
NCI-H23 lung = system: NCI-H23 lung
NCI-H460 lung = system: NCI-H460 lung
NCI-H522 lung = system: NCI-H522 lung
NCI/ADR-RES ovarian = system: NCI/ADR-RES ovarian
OVCAR-3 ovarian = system: OVCAR-3 ovarian
OVCAR-4 ovarian = system: OVCAR-4 ovarian
OVCAR-5 ovarian = system: OVCAR-5 ovarian
OVCAR-8 ovarian = system: OVCAR-8 ovarian
PC-3 prostate = system: PC-3 prostate
RPMI-8226 leukemia = system: RPMI-8226 leukemia
RXF 393 renal = system: RXF 393 renal
SF-268 CNS = system: SF-268 CNS
SF-295 CNS = system: SF-295 CNS
SF-539 CNS = system: SF-539 CNS
SK-MEL-2 melanoma = system: SK-MEL-2 melanoma
SK-MEL-28 melanoma = system: SK-MEL-28 melanoma
SK-MEL-5 melanoma = system: SK-MEL-5 melanoma
SK-OV-3 ovarian = system: SK-OV-3 ovarian
SN12C renal = system: SN12C renal
SNB-19 CNS = system: SNB-19 CNS
SNB-75 CNS = system: SNB-75 CNS
SR leukemia = system: SR leukemia
SW-620 colon = system: SW-620 colon
T-47D breast = system: T-47D breast
TK-10 renal = system: TK-10 renal
U251 CNS = system: U251 CNS
UACC-257 melanoma = system: UACC-257 melanoma
UACC-62 melanoma = system: UACC-62 melanoma
UO-31 renal = system: UO-31 renal
LOX IMVI melanoma = system: LOX IMVI melanoma

Measured: TGI

O=C(O)Cn1ccnc1[N+](=O)[O-]
not listed: LOX IMVI melanoma
> 100 µM: all other assays above

O=[N+]([O-])c1ccc(NS(=O)(=O)C(F)(F)F)cc1
not listed: HCC-2998 colon | K-562 leukemia | MALME-3M melanoma | RPMI-8226 leukemia | SR leukemia
> 100 µM: all other assays above
